Results on 13 molecules are retold here after patent publication EP3915971A1, “PHENYL-S(O)N-PHENYLAMIDINES AND THE USE THEREOF AS FUNGICIDES” (Bayer Aktiengesellschaft, priority 2020, dated 2021).

Molecules are shown by their SMILES.

A short description of data set [1]: LogP measurement by HPLC on reversed phase columns (EEC directive 79/831 Annex V.A8). Format: physicochemical. As to conditions: reversed phase HPLC columns, method [a]: LC-UV, acidic range, 0.1% formic acid in water and acetonitrile as eluent (linear gradient 10% to 95% acetonitrile). The procedure, abridged:
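Reversed-phase HPLC with LC-UV per EEC directive 79/831 Annex V.A8, linear 10–95% acetonitrile gradient. Aqueous phase was 0.1% formic acid (acidic), 0.001 molar ammonium acetate (neutral) or 0.1% phosphoric acid (acidic), by method.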

Data set [2] relates to Phakospora pachyrhizi. In words: in vivo preventive test on Phakospora pachyrhizi (soybean rust). The note with it: Glycine max, 264 h; 500 ppm of active ingredient; preventive spray on young soybean plants, inoculation after 24 hours, evaluated 11 days after inoculation; 0% = control plants, 100% = no disease; read-out: efficacy. As for the experimental part:
Example A: in vivo preventive test on Phakospora pachyrhizi (soybean rust) [table] The active ingredients were made soluble and homogenized in a mixture of Dimethyl sulfoxide/Acetone/ /Tween® 80 and then diluted in water to the desired concentration. The young plants of soybean were treated by spraying the active ingredient prepared as described above. Control plants were treated only with an aqueous solution of Acetone/Dimethyl sulfoxide/ Tween® 80. After 24 hours, the plants were contaminated by spraying the leaves with an aqueous suspension of Phakospora pachyrhizi spores. The contaminated soybean plants were incubated for 24 hours at 24°C and at 100% relative humidity and then for 10 days at 24°C and at 70-80% relative humidity. The test was evaluated 11 days after the inoculation. 0% means an efficacy which corresponds to that of the control plants while an efficacy of 100% means that no disease was observed.

Broadly, the chromatographic logP is a lipophilicity value derived from retention on a column. Read a high chromatographic logP as a more lipophilic compound. Consider `CCN(C)C=Nc1cc(F)c(Sc2ccccc2)cc1C` [Example I-021, N-ethyl-N'-(5-fluoro-2-methyl-4-phenylsulfanylphenyl)-N-methylmethanimidamide], for which the chromatographic logP in data set [1] came to 1.53. For the same molecule, the pest or weed control at 500 ppm in data set [2] was no less than 70%.
Regarding `CCN(C)C=Nc1cc(F)c(Sc2ccccc2C)cc1C` [Example I-022, N-ethyl-N'-[5-fluoro-2-methyl-4-[(2-methylphenyl)thio]phenyl]-N-methylmethanimidamide], the chromatographic logP in data set [1] was 1.66. In data set [2], the pest or weed control at 500 ppm is no less than 70%.
The molecule `CCN(C)C=Nc1cc(F)c(Sc2ccccc2Cl)cc1C` [Example I-023, N'-[4-[(2-chlorophenyl)thio]-5-fluoro-2-methylphenyl]-N-ethyl-N-methylmethanimidamide] showed a chromatographic logP in data set [1] of 1.69. For the same molecule, the pest or weed control at 500 ppm in data set [2] is no less than 70%.
`CCN(C)C=Nc1cc(Cl)c(Sc2ccccc2F)cc1C` [Example I-024, N'-[5-chloro-4-[(2-fluorophenyl)thio]-2-methylphenyl]-N-ethyl-N-methylmethanimidamide] had a chromatographic logP in data set [1] of 1.61. The pest or weed control at 500 ppm in data set [2] was no less than 70%.
`CCN(C)C=Nc1cc(Cl)c(Sc2ccccc2C)cc1C` [Example I-025, N'-[5-chloro-2-methyl-4-[(2-methylphenyl)thio]phenyl]-N-ethyl-N-methylmethanimidamide] gave a chromatographic logP in data set [1] of 1.81. In addition, in data set [2], the pest or weed control at 500 ppm is no less than 70%.
For `CCN(C)C=Nc1cc(Cl)c(S(=O)(=O)c2ccccc2F)cc1C` [Example I-026, N'-[5-chloro-4-(2-fluorophenyl)sulfonyl-2-methylphenyl]-N-ethyl-N-methylmethanimidamide] the same measures were 1.42 and no less than 70%.
For `CCN(C)C=Nc1cc(Br)c(Sc2ccccc2)cc1C` [Example I-039, N'-(5-bromo-2-methyl-4-phenylsulfanylphenyl)-N-ethyl-N-methylmethanimidamide] the same measures were 1.66 and no less than 70%.
`CCN(C)C=Nc1cc(Cl)c(Sc2ccccc2)cc1C` [Example I-041, N'-(5-chloro-2-methyl-4-phenylsulfanylphenyl)-N-ethyl-N-methylmethanimidamide] displayed a chromatographic logP in data set [1] of 1.63. The pest or weed control at 500 ppm in data set [2] was no less than 70%.
For `CCN(C)C=Nc1cc(Br)c(Sc2ccccc2C)cc1C` [Example I-042, N'-[5-bromo-2-methyl-4-[(2-methylphenyl)thio]phenyl]-N-ethyl-N-methylmethanimidamide] the same measures were 1.81 and no less than 70%.
The matching figures for `CCN(C)C=Nc1cc(Br)c(S(=O)(=O)c2ccccc2Cl)cc1C` [Example I-044, N'-[5-bromo-4-(2-chlorophenyl)sulfonyl-2-methylphenyl]-N-ethyl-N-methylmethanimidamide]: 1.58 and no less than 70%.
The molecule `CCN(C)C=Nc1cc(Br)c(S(=O)(=O)c2ccccc2C)cc1C` [Example I-045, N'-[5-bromo-2-methyl-4-(2-methylphenyl)sulfonylphenyl]-N-ethyl-N-methylmethanimidamide] had a chromatographic logP in data set [1] of 1.53. For the same molecule, the pest or weed control at 500 ppm in data set [2] was no less than 70%.
`CCN(C)C=Nc1cc(Br)c(Sc2ccccc2F)cc1C` [Example I-046, N'-[5-bromo-4-[(2-fluorophenyl)thio]-2-methylphenyl]-N-ethyl-N-methylmethanimidamide]: the chromatographic logP in data set [1] was determined as 1.66. Also, in data set [2], the pest or weed control at 500 ppm is no less than 70%.
In turn, `CCN(C)C=Nc1cc(Br)c(Sc2ccccc2Cl)cc1C` [Example I-047, N'-[5-bromo-4-[(2-chlorophenyl)thio]-2-methylphenyl]-N-ethyl-N-methylmethanimidamide] registered a chromatographic logP in data set [1] of 1.84. The pest or weed control at 500 ppm in data set [2] is no less than 70%.
